Experiment [1] deals with 409B2 hiPSC (iCRISPR Cas9, FRMD7 editing). The experiment in a line: cell survival relative to solvent control (fold (ratio to mock)); higher = more surviving cells. As for the experimental part: (§1)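 Subset screen of 55 drugs tested at 5 concentrations around the effective screening dose, in 409B2 iCRISPR Cas9 hiPSCs editing FRMD7 with a ssDNA donor. Drugs were applied for 24 h. Viability was read by resazurin and editing outcomes by amplicon sequencing (HDR, NHEJ <2 bp microhomology, MMEJ ≥2 bp microhomology). Values are relative to solvent mock controls; two biological replicates.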

For experiment [2] the test system is unchanged. The experiment in a line: HDR (precise edit) frequency relative to solvent control (fold (ratio to mock)); higher = more homology-directed repair outcomes. The protocol: as §1
Experiment [3] has the same test system. In words: MMEJ-attributed deletion frequency relative to solvent control (fold (ratio to mock)); higher = more MMEJ outcomes. The protocol: as §1
For experiment [4] the test system is unchanged. The experiment in a line: NHEJ-attributed indel frequency relative to solvent control (fold (ratio to mock)); higher = more NHEJ outcomes. As for the experimental part: as §1

± gives the standard deviation of the averaged measurements.

Here are results for six compounds from the supplement of paper PMC12698765.

Regarding `NCCS` [2-Aminoethanethiol] (in DMSO), the cell survival in experiment [1] (20 nM) amounted to 0.948; in experiment [1] (50 nM), 1.07; in experiment [1] (100 nM), 0.956; in experiment [1] (200 nM) it was 1.08; in experiment [1] (500 nM) it was 0.899. Besides, the HDR in experiment [2] (20 nM) turned out to be 1.073 ± 0.0014; in experiment [2] (50 nM), 1.05 ± 0.08; in experiment [2] (100 nM) it was 0.984 ± 0.019; in experiment [2] (200 nM), 1.12 ± 0.029; in experiment [2] (500 nM), 0.949 ± 0.16. In addition, the MMEJ-attributed deletion frequency stood at 0.917 ± 0.035 in experiment [3] (20 nM); 0.862 ± 0.013 in experiment [3] (50 nM); 0.932 ± 0.18 in experiment [3] (100 nM); 0.976 ± 0.074 in experiment [3] (200 nM); 1.04 ± 0.19 in experiment [3] (500 nM). Besides, the NHEJ-attributed indel frequency in experiment [4] (20 nM) was determined as 0.979 ± 0.0017; in experiment [4] (50 nM) it was 1.003 ± 0.0053; in experiment [4] (100 nM), 0.9962 ± 0.0046; in experiment [4] (200 nM), 1 ± 0.022; in experiment [4] (500 nM), 1.02 ± 0.052.

With `CC(=O)O[C@@]12CO[C@@H]1C[C@@H](O)[C@@]1(C)C(=O)[C@H](O)C3=C(C)[C@@H](O)C[C@@](O)([C@@H](OC(=O)c4ccccc4)[C@H]21)C3(C)C` [10-DAB (10-Deacetylbaccatin)] (in DMSO), the cell survival in experiment [1] (200 nM) was 0.914; in experiment [1] (500 nM) it was 1.06; in experiment [1] (1000 nM), 0.177; in experiment [1] (2000 nM), 0.00356; in experiment [1] (5000 nM), 0.00663. Also, the HDR amounted to 1.063 ± 0.0036 in experiment [2] (200 nM); 1 ± 0.049 in experiment [2] (500 nM); 0.816 ± 0.17 in experiment [2] (1000 nM); 0.304 ± 0.013 in experiment [2] (2000 nM); 0.339 ± 0.06 in experiment [2] (5000 nM). Also, the MMEJ-attributed deletion frequency amounted to 1.06 ± 0.14 in experiment [3] (200 nM); 1.02 ± 0.049 in experiment [3] (500 nM); 0.936 ± 0.083 in experiment [3] (1000 nM); 0.561 ± 0.18 in experiment [3] (2000 nM); 0.4879 ± 0.0029 in experiment [3] (5000 nM). For the same compound, the NHEJ-attributed indel frequency amounted to 0.906 ± 0.017 in experiment [4] (200 nM); 0.983 ± 0.014 in experiment [4] (500 nM); 0.918 ± 0.075 in experiment [4] (1000 nM); 0.488 ± 0.08 in experiment [4] (2000 nM); 0.522 ± 0.1 in experiment [4] (5000 nM).

Turning to `CC[C@@]1(O)C(=O)OCc2c1cc1n(c2=O)Cc2cc3cc(O)ccc3nc2-1` [10-Hydroxycamptothecin] (in DMSO), the cell survival in experiment [1] (20 nM) is 0.0133; in experiment [1] (50 nM), -0.00908; in experiment [1] (100 nM), -0.00864; in experiment [1] (200 nM) it was -0.0102; in experiment [1] (500 nM), -0.000182. Besides, the HDR in experiment [2] (20 nM) worked out at 0.141 ± 0.075; in experiment [2] (50 nM), 0.115 ± 0.032; in experiment [2] (100 nM), 0.106 ± 0.03; in experiment [2] (200 nM), 0.0697 ± 0.015; in experiment [2] (500 nM), 0.109 ± 0.033. Also, the MMEJ-attributed deletion frequency is 0.686 ± 0.039 in experiment [3] (20 nM); 0.286 ± 0.059 in experiment [3] (50 nM); 0.389 ± 0.0056 in experiment [3] (100 nM); 0.546 ± 0.05 in experiment [3] (200 nM); 0.474 ± 0.22 in experiment [3] (500 nM). The NHEJ-attributed indel frequency in experiment [4] (20 nM) was found to be 0.393 ± 0.053; in experiment [4] (50 nM) it was 0.378 ± 0.0062; in experiment [4] (100 nM) it was 0.333 ± 0.045; in experiment [4] (200 nM), 0.267 ± 0.025; in experiment [4] (500 nM), 0.208 ± 0.021.

For `C=CC[C@]1(O)CC[C@H]2[C@@H]3CCC4=CC(=O)CCC4=C3C=C[C@@]21C` [Altrenogest] (in DMSO), the cell survival in experiment [1] (20 nM) was found to be 1.01; in experiment [1] (50 nM) it was 1.11; in experiment [1] (100 nM), 0.87; in experiment [1] (200 nM), 1.05; in experiment [1] (500 nM), 1.06. Besides, the HDR in experiment [2] (20 nM) amounted to 1.08 ± 0.065; in experiment [2] (50 nM), 1.08 ± 0.06; in experiment [2] (100 nM) it was 1.024 ± 0.0079; in experiment [2] (200 nM), 1.048 ± 0.0023; in experiment [2] (500 nM), 1.01 ± 0.088. The MMEJ-attributed deletion frequency was 1 ± 0.085 in experiment [3] (20 nM); 0.963 ± 0.12 in experiment [3] (50 nM); 1.02 ± 0.12 in experiment [3] (100 nM); 0.888 ± 0.14 in experiment [3] (200 nM); 0.98 ± 0.18 in experiment [3] (500 nM). For the same compound, the NHEJ-attributed indel frequency came out at 0.9775 ± 0.0069 in experiment [4] (20 nM); 1.007 ± 0.0051 in experiment [4] (50 nM); 1.007 ± 0.0033 in experiment [4] (100 nM); 1 ± 0.038 in experiment [4] (200 nM); 1.02 ± 0.036 in experiment [4] (500 nM).

For `CO[C@H]1O[C@@H]2O[C@@]3(C)CC[C@H]4[C@H](C)CC[C@@H]([C@H]1C)[C@@]24OO3` [Artemether (SM-224)] (in DMSO), the cell survival in experiment [1] (200 nM) was 0.947; in experiment [1] (500 nM) it was 1.23; in experiment [1] (1000 nM), 0.644; in experiment [1] (2000 nM), 1.09; in experiment [1] (5000 nM), 1.03. For the same compound, the HDR was 1.06 ± 0.036 in experiment [2] (200 nM); 1.13 ± 0.018 in experiment [2] (500 nM); 1.123 ± 0.0055 in experiment [2] (1000 nM); 1.09 ± 0.11 in experiment [2] (2000 nM); 1.17 ± 0.15 in experiment [2] (5000 nM). Moreover, the MMEJ-attributed deletion frequency in experiment [3] (200 nM) was 0.853 ± 0.13; in experiment [3] (500 nM), 0.935 ± 0.072; in experiment [3] (1000 nM), 0.804 ± 0.037; in experiment [3] (2000 nM), 0.907 ± 0.14; in experiment [3] (5000 nM), 0.946 ± 0.026. The NHEJ-attributed indel frequency in experiment [4] (200 nM) was 0.983 ± 0.012; in experiment [4] (500 nM) it was 0.976 ± 0.022; in experiment [4] (1000 nM), 0.958 ± 0.011; in experiment [4] (2000 nM), 1 ± 0.024; in experiment [4] (5000 nM), 1.02 ± 0.037.

In the case of `Cc1ccc(NC(=O)c2ccc(CN3CC[C@H](N(C)C)C3)c(C(F)(F)F)c2)cc1Nc1nccc(-c2cncnc2)n1` [Bafetinib (INNO-406)] (in DMSO), the cell survival was determined as 1.07 in experiment [1] (2000 nM); 1.36 in experiment [1] (5000 nM); 0.818 in experiment [1] (10000 nM); 0.096 in experiment [1] (20000 nM); 0.0107 in experiment [1] (50000 nM). The HDR came out at 1.04 ± 0.053 in experiment [2] (2000 nM); 1.066 ± 0.0049 in experiment [2] (5000 nM); 1.03 ± 0.1 in experiment [2] (10000 nM); 0.775 ± 0.27 in experiment [2] (20000 nM); 0.282 in experiment [2] (50000 nM). Besides, the MMEJ-attributed deletion frequency in experiment [3] (2000 nM) is 1.04 ± 0.012; in experiment [3] (5000 nM) it was 0.89 ± 0.082; in experiment [3] (10000 nM) it was 1.13 ± 0.045; in experiment [3] (20000 nM), 1.32 ± 0.11; in experiment [3] (50000 nM) it was 0.621. Also, the NHEJ-attributed indel frequency was found to be 0.9931 ± 0.002 in experiment [4] (2000 nM); 1.004 ± 0.0057 in experiment [4] (5000 nM); 1.06 ± 0.025 in experiment [4] (10000 nM); 1.03 ± 0.11 in experiment [4] (20000 nM); 0.525 in experiment [4] (50000 nM).
